# From patent US6500472B2, “Folic acid and/or vitamin B12-lactoferrin complex” (Snow Brand Milk Products Co., Ltd., priority 2000, dated 2002)
# Where two headings read alike, the source gives them in different places.
# Tests used:
# [1] = Vitamin B12 reduction after sterilization at 90 C and storage at 35 C for 2 months; type: physicochemical; details: sterilized 90 C 30 min, stored 35 C 2 months
# Procedure: […] The resultant admixture was subjected to dialysis using a dialysis membrane (cut-off molecular weight: 5 kDa) against deionized water and then to freeze-drying to obtain a vitamin B12-lactoferrin complex in which 57 molecules of vitamin B12 were held per one molecule of lactoferrin. […] […] Portions (5 ml) of each sample solution were dispensed into heat-resistant glass bottles and sealed, sterilized at 90 C for 30 minutes and then stored at 35 C for 2 months. The reduction rates of vitamin B12 were measured. The amount of vitamin B12 was measured in the same manner as in Test Example 5.
# lactoferrin [2] = target: T1, lactoferrin (Bos taurus, UniProt P24627); assay: Vitamin B12 held by lactoferrin (UF membrane separation, method using microorganisms); type: binding; details: for Amount of vitamin B12 held per 1 μmol of lactoferrin: imidazole buffer pH 6.5
# Procedure: The resultant solution was treated with a UF membrane (cut-off molecular weight: 5 kDa; a product of Millipore Corp.) to separate it into the permeate and the retentate. Further, a 50 mM imidazole buffer solution (pH 6.5) was added to the remaining retentate to recover the permeate. This process was repeated four times and the resulting permeate was diluted […] to recover whole free vitamin B12 into the permeate. Further, the pH of the vitamin B12-lactoferrin complex sample in the retentate was adjusted to 2.0, 2 mg of pepsin (a product of Sigma) per 1 ml sample were added, and proteolysis was carried out at 37 C for 60 minutes, after which the pH was further adjusted to 7.5, 2 mg of trypsin (a product of Sigma) per 1 ml sample were added, and proteolysis was carried out at 37 C for 120 minutes. After heating, the supernatant was recovered by centrifugation at 15,000 G. The amount of vitamin B12 was measured by a method using microorganisms (Encyclopedia of Vitamins, the Japanese Association of Vitaminology, Asakura Shoten, p. 501, 1996). Further, a calibration curve was obtained by using cyanocobalmin (a product of Sigma).
# [3] = Light radiation test (40-watt fluorescent lamp), folic acid measured by method using microorganisms; type: physicochemical; details: phosphate buffer pH 6.5
# Procedure: A light radiation test was carried out with a folic acid-lactoferrin complex. Namely, to a 1 μmol lactoferrin solution which was prepared by dissolving lactoferrin into 50 ml of a 50 mM sodium bicarbonate aqueous solution (pH 8.5) was added folic acid to make a 100 μmol solution. The resultant admixture was subjected to dialysis using a dialysis membrane (cut-off molecular weight: 10 kDa) against a 5 mM phosphate buffer solution (pH 6.5) and then to freeze-drying to obtain a folic acid-lactoferrin complex. The resulting folic acid-lactoferrin complex powder was dissolved in a 50 mM phosphoric acid buffer solution (pH 6.5) at a concentration of 3 mg/100 ml. Separately, folic acid (a product of Sigma) was dissolved in a 50 mM phosphoric acid buffer solution (pH 6.5) at a concentration of 0.8 mg/100 ml. Each sample solution (5 ml) was dispensed into a transparent polyethylene container, water was added to a depth of 5 mm, and the solution was subjected to radiation with a 40-watt fluorescent lump from a height of 30 mm, after which the amount of folic acid was measured by a method using microorganisms. Namely, the pH of the folic acid-lactoferrin complex sample was adjusted to 2.0, 2 mg of pepsin (a product of Sigma) per 1 ml sample were added, and proteolysis was carried out at 37 C for 120 minutes, after which the pH was further adjusted to 7.5, 2 mg of trypsin (a product of Sigma) per 1 ml sample were added, and proteolysis was carried out at 37 C for 120 minutes. After deaeration, the reaction solution was heated for 5 minutes and centrifuged at 15,000 G to recover the supernatant. The amount of folic acid was measured by a method using microorganisms (Davis, R. E., D. J. Nicol & A. Kelly, J. Clin. Path., vol. 23, pp. 47-53, 1970). Further, a calibration curve was obtained by using folic acid (a product of Sigma). These operations and measurements were carried out in the dark except for the fluorescent radiation.
# [4] = Turbidity at 660 nm / solubility in deionized water; type: physicochemical
# Procedure: Folic acid and the folic acid-lactoferrin complex used in Test Example 2 were each added to deionized water at a folic acid concentration of 0.1 to 10 μmol/10 ml to measure turbidity at 660 nm.
# [5] = cited from earlier work
# [6] = Stability of folic acid in citric acid buffer pH 2.5 after sterilization and storage at 37 C; type: physicochemical
# Procedure: Folic acid and the folic acid-lactoferrin complex used in Test Example 2 were each added to a 10 mM citric acid buffer solution (pH 2.5) at a folic acid concentration of 0.25 μmol/10 ml. Next, 50 ml portions of the solutions were dispensed in brown bottles, sterilized at 90 C for 30 minutes and then stored at 37 C. The amount of folic acid was measured in the same manner as in Test Example 2.
# lactoferrin [7] = target: T1, lactoferrin; assay: Folic acid held by lactoferrin (UF membrane separation, free folic acid by optical density at 362 nm); type: binding; details: for Amount of folic acid held per 1 μmol of lactoferrin: 50 mM sodium bicarbonate pH 8.5
# Procedure: A lactoferrin solution at a concentration of 1 μmol/20 ml was prepared by dissolving lactoferrin in a 50 mM sodium bicarbonate aqueous solution (pH 8.5), and folic acid was added at a concentration of 10 to 300 μmol/20 ml. The resultant admixture was treated with an ultrafiltration (UF) membrane (cut-off molecular weight: 5 kDa; a product of Millipore Corp.) to separate it into the permeate and the retentate. Further, a 50 mM sodium bicarbonate aqueous solution (pH 8.5) was added to the remaining retentate to recover the permeate. This process was repeated four times and the resulting permeate was diluted […] to recover the whole free folic acid into the permeate. The amount of binding-type folic acid remaining in the retentate was calculated from the amount of free folic acid contained in the recovered permeate obtained by measuring optical density at 362 nm. Upon measuring the optical density for folic acid, it was confirmed that no protein was eluted into the permeate and no inhibiting substance derived from proteins existed. Further, a folic acid aqueous solution without protein was simultaneously subjected to the UF membrane treatment to prepare a control sample. These operations and measurements were performed in the dark to prevent decomposition of folic acid. No decomposition of folic acid during the measurement was confirmed by the optical density measurement.
# [8] = Folic acid concentration 0.1 μmol/10 ml in deionized water
# [9] = Folic acid concentration 1.0 μmol/10 ml in deionized water
# [10] = Folic acid concentration 10 μmol/10 ml in deionized water
# T1 sequence (P24627 20-708): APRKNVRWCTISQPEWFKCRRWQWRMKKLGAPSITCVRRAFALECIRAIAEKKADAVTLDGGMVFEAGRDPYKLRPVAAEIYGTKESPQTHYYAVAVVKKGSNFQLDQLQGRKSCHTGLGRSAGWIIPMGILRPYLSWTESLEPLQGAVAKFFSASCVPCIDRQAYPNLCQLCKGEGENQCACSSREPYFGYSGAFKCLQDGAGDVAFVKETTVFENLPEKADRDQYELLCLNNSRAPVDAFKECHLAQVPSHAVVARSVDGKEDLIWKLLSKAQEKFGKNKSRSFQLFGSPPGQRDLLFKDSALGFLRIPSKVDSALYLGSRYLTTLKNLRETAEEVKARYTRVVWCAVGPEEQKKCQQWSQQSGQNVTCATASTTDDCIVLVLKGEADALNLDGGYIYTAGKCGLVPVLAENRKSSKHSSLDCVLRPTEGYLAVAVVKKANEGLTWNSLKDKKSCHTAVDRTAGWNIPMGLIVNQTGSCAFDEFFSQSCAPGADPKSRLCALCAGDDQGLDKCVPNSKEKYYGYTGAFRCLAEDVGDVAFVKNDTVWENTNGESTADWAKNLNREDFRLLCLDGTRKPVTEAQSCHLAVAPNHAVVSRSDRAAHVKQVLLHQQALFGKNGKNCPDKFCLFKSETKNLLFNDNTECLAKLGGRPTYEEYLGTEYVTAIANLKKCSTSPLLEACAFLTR
molecule,measurement,setting,value
Vitamin B12,Vitamin B12 reduction rate,[1]; pH 3.0,48%
same,Vitamin B12 reduction rate,[1]; pH 7.5,8%
same,Amount of vitamin B12 held per 1 μmol of lactoferrin,lactoferrin [2]; Vitamin B12 added 10 μmol,4.2 µmol
same,Amount of vitamin B12 held per 1 μmol of lactoferrin,lactoferrin [2]; Vitamin B12 added 100 μmol,41 µmol
same,Amount of vitamin B12 held per 1 μmol of lactoferrin,lactoferrin [2]; Vitamin B12 added 500 μmol,130 µmol
same,Maximal amount of vitamin B12 carried,lactoferrin [2]; maximally,about 100 molecules per one molecule of lactoferrin
Nc1nc2ncc(CNc3ccc(C(=O)N[C@@H](CCC(=O)O)C(=O)O)cc3)nc2c(=O)[nH]1 [Folic acid],Folic acid,[3]; Radiation time 0 min,0.16 μmol/10 ml
same,Folic acid,[3]; Radiation time 0.5 min,0.13 μmol/10 ml
same,Folic acid,[3]; Radiation time 7 min,0.03 μmol/10 ml
same,Appearance of solution,[4]; [8],Slightly turbid
same,Turbidity at 660 nm,[4]; [8],0.01
same,Appearance of solution,[4]; [9],Insoluble
same,Turbidity at 660 nm,[4]; [9],0.025
same,Appearance of solution,[4]; [10],Insoluble
same,Turbidity at 660 nm,[4]; [10],0.034
same,Solubility of folic acid in deionized water,[4]; deionized water,less than 0.1 μmol/10 ml
same,Folic acid lost,"[5]; cow's milk, heat sterilization or during storage",about 60%
same,Folic acid lost,[5]; powdered milk,25%
same,Folic acid,"[6]; Before heat pasteurization, citric acid buffer pH 2.5",0.28 μmol/10 ml
same,Folic acid,"[6]; Immediately after heat pasteurization (90 C, 30 min), pH 2.5",0.18 μmol/10 ml
same,Folic acid,"[6]; Stored for 2 months at 37 C, pH 2.5",0.05 μmol/10 ml
same,Folic acid,"[6]; Stored for 4 months at 37 C, pH 2.5",0.01 μmol/10 ml
same,Amount of folic acid held per 1 μmol of lactoferrin,lactoferrin [7]; Folic acid added 10 μmol,9.3 µmol
same,Amount of folic acid held per 1 μmol of lactoferrin,lactoferrin [7]; Folic acid added 50 μmol,40 µmol
same,Amount of folic acid held per 1 μmol of lactoferrin,lactoferrin [7]; Folic acid added 100 μmol,79 µmol
same,Amount of folic acid held per 1 μmol of lactoferrin,lactoferrin [7]; Folic acid added 200 μmol,160 µmol
same,Amount of folic acid held per 1 μmol of lactoferrin,lactoferrin [7]; Folic acid added 300 μmol,210 µmol
same,Maximal amount of folic acid incorporated,lactoferrin [7]; maximally,about 200 molecules per one molecule of lactoferrin
